Source: patent publication US10576057B2, “Methods for treating muscle wasting and degeneration diseases” (NEWTREE CO., LTD., priority 2015, dated 2020)

Experiments:
Format in all cases: cell-based
p-p70S6K = p-p70S6K protein expression by western blot in L6 muscle cells
Description: (§1) L6 myoblasts (ATCC, Manassas, Va., USA) were added to a 6-well plate with Dulbecco's modified Eagle's Media (DMEM; Hyclone) containing 10% fetal bovine serum (FBS; Hyclone, Logan, Utah, USA) at a concentration of 2×10^5 cells/mL. When the cell density reached about 80 to 85%, the medium in the wells was removed. […] Meanwhile, a group treated with 0.01% DMSO instead of the sample was used as a control group. This procedure was carried out for 6 days in two days to differentiate and then dissolved in NP-40 buffer solution (ELPIS-Biotech, Daejeon, Republic of Korea) containing proteinase inhibitor cocktail. The cells dissolved in the buffer solution were transferred to a 1.5-mL tube and centrifuged at 13,000 rpm for 10 minutes to take only a supernatant. The supernatant was quantified using Bradford (Bio-Rad Laboratories Inc., Hercules, Calif., USA). The quantified proteins were boiled for 5 minutes, separated by electrophoresis on 10% SDS-PAGE, and were transferred to the nitrocellulose membrane. A p-mTOR primary antibody (Cellular signaling technology, Beverly, Mass., USA) was diluted with 2.5% bovine serum albumin (BSA) at a ratio of 1:1000 and reacted with proteins transferred to the nitrocellulose membrane for 20 hours at room temperature. […]

p-4EBP1 = p-4EBP1 protein expression by western blot in L6 muscle cells
Description: as §1

p-mTOR = p-mTOR protein expression by western blot in L6 muscle cells; details: 5 μM, differentiation 6 days, vs 0.01% DMSO control
Description: L6 myoblasts (ATCC, Manassas, Va., USA) were added to a 6-well plate with Dulbecco's modified Eagle's Media (DMEM; Hyclone) containing 10% fetal bovine serum (FBS; Hyclone, Logan, Utah, USA) at a concentration of 2×10^5 cells/mL. When the cell density reached about 80 to 85%, the medium in the wells was removed. The ethanol extract of Mori Cortex Radicis (20 μg/mL) prepared in Example 1-2, the hot water extract of Mori Cortex Radicis (20 μg/mL) prepared in Example 1-5, the morusin (5 μM) and the kuwanon G (5 μM) isolated and purified in Example 2 were dissolved in DMEM (Hyclone) containing 2% HS (Hyclone), followed by its treatment to the cells to induce myotube differentiation. Meanwhile, a group treated with 0.01% DMSO instead of the sample was used as a control group. This procedure was carried out for 6 days in two days to differentiate and then dissolved in NP-40 buffer solution (ELPIS-Biotech, Daejeon, Republic of Korea) containing proteinase inhibitor cocktail. The cells dissolved in the buffer solution were transferred to a 1.5-mL tube and centrifuged at 13,000 rpm for 10 minutes to take only a supernatant. The supernatant was quantified using Bradford (Bio-Rad Laboratories Inc., Hercules, Calif., USA). The quantified proteins were boiled for 5 minutes, separated by electrophoresis on 10% SDS-PAGE, and were transferred to the nitrocellulose membrane. […]

CC(C)=CCc1c(-c2ccc(O)cc2O)oc2c([C@H]3C=C(C)C[C@@H](c4ccc(O)cc4O)[C@@H]3C(=O)c3ccc(O)cc3O)c(O)cc(O)c2c1=O [Kuwanon G, 8-[(1S,5R,6S)-6-(2,4-Dihydroxybenzoyl)-5-(2,4-dihydroxyphenyl)-3-methyl-2-cyclohexen-1-yl]-2-(2,4-dihydroxyphenyl)-5,7-dihydroxy-3-(3-methyl-2-buten-1-yl)-4H-chromen-4-one]
increased: expression of p-p70S6K protein (p-p70S6K; 1 μM and 5 μM) | expression of p-4EBP1 protein (p-4EBP1; 1 μM and 5 μM) | expression of p-mTOR (p-mTOR)

CC(C)=CCc1c(-c2ccc(O)cc2O)oc2c3c(cc(O)c2c1=O)OC(C)(C)C=C3 [Morusin, 2-(2,4-Dihydroxyphenyl)-5-hydroxy-8,8-dimethyl-3-(3-methyl-2-buten-1-yl)-4H,8H-benzo[1,2-b:3,4-b′]dipyran-4-one]
increased: expression of p-p70S6K protein (p-p70S6K; 0.1 and 1 μM) | expression of p-4EBP1 protein (p-4EBP1; 0.1 and 1 μM) | expression of p-mTOR (p-mTOR)
